Measurements: patent US20250325677A1, “STAT6 DEGRADERS” (Gilead Sciences, Inc., priority 2024, published 2025)

Tests used:
STAT6 = STAT6 (Homo sapiens (Human), UniProt P42226); test: STAT6 degrader assay (HiBiT, HeLa LgBiT clone 4.14); format: cell-based; conditions: HeLa LgBiT clone 4.14, 4-24 h; for DC50: geometric mean, given for compounds with >80% Emax, read-out: STAT6 degradation DC50
How it was run: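 HeLa LgBiT clone 4.14 cells with HiBiT knocked into endogenous STAT6 were treated with compound for 4-24 h at 37° C. Luminescence after Nano-GLO substrate (0.5 h) measured remaining STAT6; 50 μM terfenadine wells defined 100% degradation, and DC50 (nM) was derived.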

eotaxin-3 release = test: Human whole blood eotaxin-3 assay (IL-4 stimulated); format: cell-based; conditions: human whole blood, IL-4 0.4 nM, 48 hours; geometric mean; given for compounds with >80% Emax; read-out: Eotaxin-3 EC50
Protocol: Human Whole Blood Eotaxin-3 Assay
This was a human whole blood assay using recombinant human Interleukin 4 to stimulate the blood and measuring the ability of the test compounds to inhibit eotaxin-3 release. Compounds or media were added to the wells and incubated together with human whole blood for 120 minutes at 37° C. Subsequently, recombinant IL-4 was added at a final concentration of 0.4 nM. The plates were incubated for 48 hours.
Test compounds which inhibited eotaxin-3 release upon stimulation with human IL-4 (E. coli) interfered with the signaling in human whole blood are expected to have activity in human beings. […] The EC50 value indicates at which concentration test compounds were active and in inhibiting the eotaxin-3 release. As eotaxin-3 release is down-stream of STAT6 signaling both STAT6 inhibitors and STAT6 degraders are active in this assay.
The data from the human whole blood eotaxin-3 assay is shown below for Examples 3e27, 3e50, 3e17, and 3e51 (where the effect in % is plotted against the test concentration in M on a log-scale).

Chain of STAT6 (P42226 whole entry): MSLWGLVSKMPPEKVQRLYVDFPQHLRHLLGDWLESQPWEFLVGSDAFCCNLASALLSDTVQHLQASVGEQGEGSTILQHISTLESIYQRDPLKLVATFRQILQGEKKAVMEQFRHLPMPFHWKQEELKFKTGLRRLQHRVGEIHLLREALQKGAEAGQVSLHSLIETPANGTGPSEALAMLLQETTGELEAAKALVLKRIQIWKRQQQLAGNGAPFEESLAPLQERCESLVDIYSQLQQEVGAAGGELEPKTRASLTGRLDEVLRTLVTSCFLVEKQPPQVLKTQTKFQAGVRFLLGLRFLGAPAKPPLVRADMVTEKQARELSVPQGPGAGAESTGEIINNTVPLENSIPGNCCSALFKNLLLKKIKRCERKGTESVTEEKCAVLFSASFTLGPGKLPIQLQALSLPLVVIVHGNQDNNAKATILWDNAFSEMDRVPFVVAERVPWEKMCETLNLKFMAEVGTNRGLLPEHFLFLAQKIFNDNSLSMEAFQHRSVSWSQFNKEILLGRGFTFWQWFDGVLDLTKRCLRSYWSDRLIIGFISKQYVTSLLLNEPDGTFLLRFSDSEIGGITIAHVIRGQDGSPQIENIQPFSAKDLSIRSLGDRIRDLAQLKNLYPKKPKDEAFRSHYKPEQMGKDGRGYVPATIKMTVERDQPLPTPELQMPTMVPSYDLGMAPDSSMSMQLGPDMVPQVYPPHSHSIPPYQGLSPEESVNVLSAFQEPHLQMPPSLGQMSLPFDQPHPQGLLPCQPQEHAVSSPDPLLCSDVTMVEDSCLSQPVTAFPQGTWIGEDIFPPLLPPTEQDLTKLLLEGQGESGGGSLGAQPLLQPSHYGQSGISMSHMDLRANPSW

Row | Compound | DC50 (STAT6) [nM] | EC50 (eotaxin-3 release) [nM] | Emax (STAT6; read-out: STAT6 degradation Emax (%)) [%]
1 | CC[C@H]1CN(Cc2ccc3c(c2)n(C)c(=O)n3C2CCC(=O)NC2=O)CCN1CC1CCN(C(=O)c2ccc(C3CCN([C@@H](C)c4cc5c(-c6ccc(N)nc6)ccnc5n4C)CC3)cc2)CC1 (stereo partly drawn) [Example 3e23, 3-(5-(((S)-4-((1-(4-(1-((S)-1-(4-(6-aminopyridin-3-yl)-1-methyl-1H-pyrrolo[2,3-b]pyridin-2-yl)ethyl)piperidin-4-yl)benzoyl)piperidin-4-yl)methyl)-3-ethylpiperazin-1-yl)methyl)-3-methyl-2-oxo-2,3-dihydro-1H-benzo[d]imidazol-1-yl)piperidine-2,6-dione] | 0.8 | 4.2 | –
2 | C[C@@H](c1cc2c(-c3ccc(N)nc3)ccnc2n1C)N1CCC(c2ccc(C(=O)N3CCC(CN4CCN(Cc5cc6c(cc5Cl)n(C5CCC(=O)NC5=O)c(=O)n6C)CC4)CC3)cc2)CC1 (stereo partly drawn) [Example 3e30, 3-(5-((4-((1-(4-(1-((S)-1-(4-(6-aminopyridin-3-yl)-1-methyl-1H-pyrrolo[2,3-b]pyridin-2-yl)ethyl)piperidin-4-yl)benzoyl)piperidin-4-yl)methyl)piperazin-1-yl)methyl)-6-chloro-3-methyl-2-oxo-2,3-dihydro-1H-benzo[d]imidazol-1-yl)piperidine-2,6-dione] | 7.2 | 36.9 | –
3 | C[C@@H](c1cc2c(-c3ccc(N)nc3)ccnc2n1C)N1CCC(c2ccc(C(=O)N3CCC(CN4CCN(Cc5ccc6c(c5)n(C)c(=O)n6C5CCC(=O)NC5=O)CC4C(F)(F)F)CC3)cc2)CC1 (stereo partly drawn) [Example 3e31, 3-(5-((4-((1-(4-(1-((S)-1-(4-(6-aminopyridin-3-yl)-1-methyl-1H-pyrrolo[2,3-b]pyridin-2-yl)ethyl)piperidin-4-yl)benzoyl)piperidin-4-yl)methyl)-3-(trifluoromethyl)piperazin-1-yl)methyl)-3-methyl-2-oxo-2,3-dihydro-1H-benzo[d]imidazol-1-yl)piperidine-2,6-dione] | 2 | 9.3 | –
4 | C[C@@H](c1cc2c(-c3ccc(N)nc3)ccnc2n1C)N1CCC(c2ccc(C(=O)N3CCC(F)(CN4CCN(Cc5ccc6c(c5)n(C)c(=O)n6C5CCC(=O)NC5=O)CC4)CC3)cc2)CC1 (stereo partly drawn) [Example 3e32, 3-(5-((4-((1-(4-(1-((S)-1-(4-(6-aminopyridin-3-yl)-1-methyl-1H-pyrrolo[2,3-b]pyridin-2-yl)ethyl)piperidin-4-yl)benzoyl)-4-fluoropiperidin-4-yl)methyl)piperazin-1-yl)methyl)-3-methyl-2-oxo-2,3-dihydro-1H-benzo[d]imidazol-1-yl)piperidine-2,6-dione] | 1.6 | 7.8 | –
5 | C[C@@H](c1cc2c(-c3ccc(N)nc3)ccnc2n1C)N1CCC(c2ccc(C(=O)N3CCC(CN4CCN(Cc5cc6c(cc5F)n(C5CCC(=O)NC5=O)c(=O)n6C)CC4)CC3)cc2)CC1 (stereo partly drawn) [Example 3e33, 3-(5-((4-((1-(4-(1-((S)-1-(4-(6-aminopyridin-3-yl)-1-methyl-1H-pyrrolo[2,3-b]pyridin-2-yl)ethyl)piperidin-4-yl)benzoyl)piperidin-4-yl)methyl)piperazin-1-yl)methyl)-6-fluoro-3-methyl-2-oxo-2,3-dihydro-1H-benzo[d]imidazol-1-yl)piperidine-2,6-dione] | 1.8 | 4.9 | –
6 | C[C@@H](c1cc2c(-c3ccc(N)nc3)ccnc2n1C)N1CCC(c2ccc(C(=O)N3CCC(CN4CCN(Cc5cc6c(cc5F)n(C5CCC(=O)NC5=O)c(=O)n6C5CC5)CC4)CC3)cc2)CC1 (stereo partly drawn) [Example 3e35, 3-(5-((4-((1-(4-(1-((S)-1-(4-(6-aminopyridin-3-yl)-1-methyl-1H-pyrrolo[2,3-b]pyridin-2-yl)ethyl)piperidin-4-yl)benzoyl)piperidin-4-yl)methyl)piperazin-1-yl)methyl)-3-cyclopropyl-6-fluoro-2-oxo-2,3-dihydro-1H-benzo[d]imidazol-1-yl)piperidine-2,6-dione] | 3.2 | 7.9 | –
7 | C[C@@H](c1cc2c(-c3ccc(N)nc3)ccnc2n1C)N1CCC(c2ccc(C(=O)N3CCC(CN4CCN(Cc5ccc6c(c5)n(CCO)c(=O)n6C5CCC(=O)NC5=O)CC4)CC3)cc2)CC1 (stereo partly drawn) [Example 3e36, 3-(5-((4-((1-(4-(1-((S)-1-(4-(6-aminopyridin-3-yl)-1-methyl-1H-pyrrolo[2,3-b]pyridin-2-yl)ethyl)piperidin-4-yl)benzoyl)piperidin-4-yl)methyl)piperazin-1-yl)methyl)-3-(2-hydroxyethyl)-2-oxo-2,3-dihydro-1H-benzo[d]imidazol-1-yl)piperidine-2,6-dione] | – | 23.7 | 70 to 80
8 | C[C@H]1CN(Cc2ccc3c(c2)n(C)c(=O)n3C2CCC(=O)NC2=O)CCN1CC1CCN(C(=O)c2ccc(C3CCN([C@@H](C)c4cc5c(-c6ncc(N)cc6F)ccnc5n4C)CC3)cc2)CC1 (stereo partly drawn) [Example 3e38, 3-(5-(((S)-4-((1-(4-(1-((S)-1-(4-(5-amino-3-fluoropyridin-2-yl)-1-methyl-1H-pyrrolo[2,3-b]pyridin-2-yl)ethyl)piperidin-4-yl)benzoyl)piperidin-4-yl)methyl)-3-methylpiperazin-1-yl)methyl)-3-methyl-2-oxo-2,3-dihydro-1H-benzo[d]imidazol-1-yl)piperidine-2,6-dione] | 1 | 7.8 | –

These reach a lower EC50 (eotaxin-3 release). Values come first.

Row | DC50 (STAT6) [nM] | EC50 (eotaxin-3 release) [nM] | Emax (STAT6; read-out: STAT6 degradation Emax (%)) [%] | Compound
9 | 0.4 | 2.7 | – | COCc1nc2cc(-c3ccnc4c3cc([C@H](C)N3CCC(c5ccc(C(=O)N6CCC(CN7CCN(Cc8ccc9c(c8)n(C8CC8)c(=O)n9C8CCC(=O)NC8=O)C[C@@H]7C)CC6)cc5)CC3)n4C)ccc2[nH]1 (stereo partly drawn) [Example 3e27, 3-(3-cyclo-propyl-5-(((S)-4-((1-(4-(1-((S)-1-(4-(2-(methoxymethyl)-1H-benzo[d]imidazol-5-yl)-1-methyl-1H-pyrrolo[2,3-b]pyridin-2-yl)ethyl)piperidin-4-yl)benzoyl)piperidin-4-yl)methyl)-3-methylpiperazin-1-yl)methyl)-2-oxo-2,3-dihydro-1H-benzo[d]imidazol-1-yl)piperidine-2,6-dione]
10 | 0.2 | 1.1 | – | COC[C@H]1CN(Cc2ccc3c(c2)n(C)c(=O)n3C2CCC(=O)NC2=O)CCN1CC1CCN(C(=O)c2ccc(C3CCN([C@@H](C)c4cc5c(-c6ccc(N)nc6)ccnc5n4C)CC3)cc2)CC1 (stereo partly drawn) [Example 3e28, 3-(5-(((R)-4-((1-(4-(1-((S)-1-(4-(6-aminopyridin-3-yl)-1-methyl-1H-pyrrolo[2,3-b]pyridin-2-yl)ethyl)piperidin-4-yl)benzoyl)piperidin-4-yl)methyl)-3-(methoxymethyl)piperazin-1-yl)methyl)-3-methyl-2-oxo-2,3-dihydro-1H-benzo[d]imidazol-1-yl)piperidine-2,6-dione]
11 | 0.4 | 2.3 | – | C[C@@H](c1cc2c(-c3ccc(N)nc3)ccnc2n1C)N1CCC(c2ccc(C(=O)N3CCC(CN4[C@@H](C)CN(Cc5ccc6c(c5)n(C)c(=O)n6C5CCC(=O)NC5=O)C[C@@H]4C)CC3)cc2)CC1 (stereo partly drawn) [Example 3e29, 3-(5-(((3S,5S)-4-((1-(4-(1-((S)-1-(4-(6-aminopyridin-3-yl)-1-methyl-1H-pyrrolo [2,3-b]pyridin-2-yl)ethyl)piperidin-4-yl)benzoyl)piperidin-4-yl)methyl)-3,5-dimethylpiperazin-1l-yl)methyl)-3-methyl-2-oxo-2,3-dihydro-1H-benzo[d]imidazol-1-yl)piperidine-2,6-dione]
12 | 0.2 | 1.4 | – | C[C@H]1CN(Cc2ccc3c(c2)n(C)c(=O)n3C2CCC(=O)NC2=O)CCN1CC1CCN(C(=O)c2ccc(C3CCN([C@@H](C)c4cc5c(-c6ccc7[nH]c(=O)n(C)c7c6)ccnc5n4C)CC3)cc2)CC1 (stereo partly drawn) [Example 3e37, 3-(3-methyl-5-(((S)-3-methyl-4-((1-(4-(1-((S)-1-(1-methyl-4-(3-methyl-2-oxo-2,3-dihydro-1H-benzo[d]imidazol-5-yl)-1H-pyrrolo[2,3-b]pyridin-2-yl)ethyl)piperidin-4-yl)benzoyl)piperidin-4-yl)methyl)piperazin-1-yl)methyl)-2-oxo-2,3-dihydro-1H-benzo[d]imidazol-1-yl)piperidine-2,6-dione]
13 | 0.5 | 3.8 | – | C[C@H]1CN(Cc2ccc3c(c2)n(C)c(=O)n3C2CCC(=O)NC2=O)CCN1CC1CCN(C(=O)c2ccc(C3CCN([C@@H](C)c4cc5c(-c6ccc(NCCO)nc6)ccnc5n4C)CC3)cc2)CC1 (stereo partly drawn) [Example 3e40, 3-(5-(((S)-4-((1-(4-(1-((S)-1-(4-(6-((2-hydroxyethyl)amino)pyridin-3-yl)-1-methyl-1H-pyrrolo[2,3-b]pyridin-2-yl)ethyl)piperidin-4-yl)benzoyl)piperidin-4-yl)methyl)-3-methylpiperazin-1-yl)methyl)-3-methyl-2-oxo-2,3-dihydro-1H-benzo[d]imidazol-1-yl)piperidine-2,6-dione]
14 | 0.2 | 0.8 | – | COc1nc(N)ccc1-c1ccnc2c1cc([C@H](C)N1CCC(c3ccc(C(=O)N4CCC(CN5CCN(Cc6ccc7c(c6)n(C)c(=O)n7C6CCC(=O)NC6=O)C[C@@H]5C)CC4)cc3)CC1)n2C (stereo partly drawn) [Example 3e41, 3-(5-(((S)-4-((1-(4-(1-((S)-1-(4-(6-amino-2-methoxypyridin-3-yl)-1-methyl-1H-pyrrolo[2,3-b]pyridin-2-yl)ethyl)piperidin-4-yl)benzoyl)piperidin-4-yl)methyl)-3-methylpiperazin-1-yl)methyl)-3-methyl-2-oxo-2,3-dihydro-1H-benzo[d]imidazol-1-yl)piperidine-2,6-dione]
